Measured values: patent US20190111040A1, “IN VIVO AMELIORATION OF ENDOGENOUS ANTI-TUMOR AUTOANTIBODIES TARGETING SURFACE TUMOR ANTIGENS VIA LOW-DOSE P4N” (THE JOHNS HOPKINS UNIVERSITY, priority 2016, published 2019)
Counter-ions that a name gives are not always drawn.

Tested on: CT26 tumors
Assay: P4N in B cell or CD8+ T cell depleted mice bearing CT26 tumors
Type: in vivo, BALB/c mice
Details: 5 mg/kg intratumoral every week
Experimental: FIGS. 1A-1C illustrate the antitumor effects of low dose P4N in immune competent and deficient mice. (A) BALB/c (n=10/group) and nude mice (n=10/group) bearing CT26 tumors were treated with a single intratumoral injection of 2.5 or 5 mg/kg of P4N N. (B) B cell or CD8+ T cell depleted BALB/c mice (n=9/group) bearing CT26 tumors were treated with 5 mg/kg of P4N by intratumoral injection every week. Tumor volumes were measured every 2 days after treatments. Significant differences between the P4N groups and the PBS group were identified and labeled with *:p<0.05 and **:p<0.01. (C) Immunohistochemistry staining was used to monitor the infiltrations of macrophage (F4/80), DC (CD11c), T (CD3) and B cells (CD20) in the tumor area after a single intratumoral injection of PBS or 5 mg/kg of P4N. The photos are representative of the mice sacrificed on day 7 after the treatments.
P4N treatments in vivo. BALB/c or BALB/c/nu mice (6 week old) were inoculated subcutaneously with 1×10^6 CT-26 cells in 100 μl PBS. When the average tumor mass reached 50 mm^3, the animals were treated with 2.5 mg/kg or 5 mg/kg of P4N in one intratumoral injection. Subsequently, the tumor volumes were measured using a caliper every 2 days, and the volumes were calculated using the following formula: volume (mm^3)=length×width×height. Before sacrifice, the sera of the mice were collected for experimental use. […]

C[C@H](Cc1ccc(OCCN2CCCCC2)c(OCCN2CCCCC2)c1)[C@@H](C)Cc1ccc(OCCN2CCCCC2)c(OCCN2CCCCC2)c1 [P4N, meso-2,3-dimethyl-1,4-bis(3,4-[2-(piperidino)ethoxyphenyl])butane tetrakishydrochloride salt] was tested, and the “P4N-induced tumor inhibition under B cell-depletion” value (B cell depleted) was “abolished the effect of P4N-induced tumor inhibition” and the “P4N-induced tumor inhibition under CD8+ T cell-depletion” value (CD8+ T cell depleted) was “only attenuated the effect of P4N-induced tumor inhibition”.
